Assay results: patent US20170027172A1, “USE OF SUBSTITUTE OXO TETRAHYDROQUINOLINE SULFONAMIDES OR SALTS THEREOF FOR RAISING STRESS TOLERANCE OF PLANTS” (BAYER CROPSCIENCE AKTIENGESELLSCHAFT, priority 2014, published 2017)

Assays:
Triticum aestivum [1] = assay: Drought stress greenhouse test Part B, visual scoring vs stressed control plants; assay type: in vivo; conditions: spray application 250 g/ha, efficacy range of 2-3 pots
Protocol: (§1) Seeds of monocotyledonous and dicotyledonous crop plants were sown in sandy loam in plastic pots, covered with soil or sand and cultivated in a greenhouse under good growth conditions. The trial plants were treated at the early leaf stage (BBCH10-BBCH13). To assure uniform water supply before commencement of stress, the potted plants were supplied with water by dam irrigation prior to substance application.
(§2) The inventive compounds formulated in the form of wettable powders (WP) were sprayed onto the green parts of the plants as an aqueous suspension at an equivalent water application rate of 600 l/ha with addition of 0.2% wetting agent (e.g. agrotin). Substance application was followed immediately by stress treatment of the plants.
(§3) Drought stress was induced by gradual drying out under the following conditions:
“Day”: 14 hours with illumination at 26-30° C. “Night”: 10 hours without illumination at 18-20° C.
(§4) The duration of the respective stress phases was guided mainly by the condition of the stressed control plants. It was ended (by re-irrigating and transfer to a greenhouse with good growth conditions) as soon as irreversible damage was observed on the stressed control plants.
(§5) The end of the stress phase was followed by an about 4-7-day recovery phase, during which the plants were once again kept under good growth conditions in a greenhouse. The duration of the recovery phase was guided mainly by when the trial plants had attained a state which enabled visual scoring of potential effects, and is therefore variable.
(§6) Once this juncture had been reached, the appearance of the plants treated with test substances was recorded in comparison to the stressed control plants by the following categories:
For each substance and dosage, 2-3 pots were treated and evaluated.
(§7) BRSNS=Brassica napus TRZAS=Triticum aestivum

[2] = biological target: T1, phosphatase ABI1 via the co-regulator RCAR11/PYR1 (Arabidopsis thaliana, UniProt O49686+P49597); assay: In vitro inhibition of the phosphatase ABI1 via the co-regulator RCAR11/PYR1, MUP dephosphorylation; assay type: biochemical; design: dose or concentration left out as unconfirmed; conditions: in a solution of DMSO and water; fluorescence at 460 nm
T1 sequence (O49686 1-191): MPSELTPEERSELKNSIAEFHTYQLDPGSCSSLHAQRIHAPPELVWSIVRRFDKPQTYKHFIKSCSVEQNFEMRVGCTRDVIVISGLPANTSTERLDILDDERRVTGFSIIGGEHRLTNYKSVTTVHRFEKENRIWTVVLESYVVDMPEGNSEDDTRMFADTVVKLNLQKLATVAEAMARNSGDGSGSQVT
T1 sequence (P49597 1-434): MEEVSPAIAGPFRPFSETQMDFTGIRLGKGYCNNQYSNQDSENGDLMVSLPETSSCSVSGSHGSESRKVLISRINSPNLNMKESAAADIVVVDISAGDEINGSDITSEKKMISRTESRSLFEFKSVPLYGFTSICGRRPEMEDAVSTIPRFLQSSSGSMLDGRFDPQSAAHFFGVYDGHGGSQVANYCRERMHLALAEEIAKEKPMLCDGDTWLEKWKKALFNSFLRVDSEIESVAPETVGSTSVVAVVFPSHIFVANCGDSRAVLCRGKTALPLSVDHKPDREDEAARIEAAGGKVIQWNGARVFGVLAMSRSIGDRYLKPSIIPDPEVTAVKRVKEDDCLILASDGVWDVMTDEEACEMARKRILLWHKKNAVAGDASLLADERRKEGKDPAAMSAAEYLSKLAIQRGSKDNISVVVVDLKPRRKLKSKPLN
Summary of the method: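 Arabidopsis ABI1 (0.15 μg/well) with RCAR11/PYR1 (0.30 μg/well) in Tris-HCl pH 8, NaCl, MnCl2, DTT, Tween20; MUP substrate, 20 min at 35 °C, fluorescence ex 340/em 460 nm. Compounds tested at 5 mM in DMSO/water, optionally pre-treated with porcine liver esterase; inhibition banded ≥90/70/50/30%.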

Triticum aestivum [3] = assay: Drought stress greenhouse test Part A, visual scoring vs stressed control plants; assay type: in vivo; design: key: 0: no effect; 10: slight positive effect; 20: clear positive effect; 30: strong positive effect; conditions: average score of 3 pots
Protocol: as §1, §2, §3
“Day”: 14 hours with illumination at ˜26-30° C. “Night”: 10 hours without illumination at ˜18-20° C.
as §4
as §5, with “and was” for “and is”
as §6
In order to rule out any influence on the effects observed by any fungicidal or insecticidal action of the test compounds, it was additionally ensured that the tests proceeded without fungal infection or insect infestation.
In each test, for each crop and dosage, plants in 3 pots were treated and evaluated separately. The values reported in Tables A-1 to A-2 below for the effects obtained are averages from the scores obtained.
as §7

Triticum aestivum [4] = assay: Drought stress greenhouse test Part C, visual scoring vs stressed control plants; assay type: in vivo; conditions: efficacy range of 3-4 pots
Protocol: Seeds of monocotyledonous and dicotyledonous crop plants were sown in sandy loam in plastic or wood-fiber pots, covered with soil or sand and cultivated in a greenhouse under good growth conditions. The trial plants were treated at the early leaf stage (BBCH10-BBCH13). To assure uniform water supply before commencement of stress, the potted plants were supplied with water by dam irrigation prior to substance application. The inventive compounds were first formulated as wettable powders (WP) or dissolved in a solvent mixture. The further dilution was effected with water supplemented with 0.2% wetting agent (e.g. agrotin). The finished spray liquor was sprayed onto the green parts of the plant at an equivalent water application rate of 600 l/ha. Substance application was followed immediately by stress treatment of the plants. For this purpose, the wood-fiber pots were transferred in plastic inserts in order to prevent them from subsequently drying out too quickly. Drought stress was induced by gradual drying out under the following conditions: “Day”: 14 hours with illumination at 26-30° C. “Night”: 10 hours without illumination at 18-20° C. The duration of the respective stress phases was guided mainly by the condition of the stressed control plants. It was ended (by re-irrigating and transfer to a greenhouse with good growth conditions) as soon as irreversible damage was observed on the stressed control plants. The end of the stress phase was followed by an about 4-7-day recovery phase, during which the plants were once again kept under good growth conditions in a greenhouse. The duration of the recovery phase was guided mainly by when the trial plants had attained a state which enabled visual scoring of potential effects, and was therefore variable. Once this juncture had been reached, the appearance of the plants treated with test substances was recorded in comparison to the stressed control plants by the following categories: [table] For each substance and dosage, 3-4 pots were treated and evaluated. […] BRSNS=Brassica napus TRZAS=Triticum aestivum

Triticum aestivum [5] = assay: Drought stress test on wheat Part D, reduction in damage intensity from fresh weights; assay type: in vivo; conditions: efficacy = reduction in damage intensity (fresh weight) under drought stress, 250 g/ha, at least three repeats
Text: Wheat grains were sown in a standardized number in sandy loam soil plastic pots, covered with soil or sand and grown in a greenhouse under good growth conditions. Pots with uneven degrees of emergence were excluded prior to the start of the trial. The treatment with test substances was effected at the early leaf stage (BBCH10-BBCH13). To assure uniform water supply, the potted plants were supplied with water by dam irrigation prior to substance application. The inventive compounds were first formulated as wettable powders (WP) or dissolved in a solvent mixture. The further dilution was effected with water supplemented with 0.2% wetting agent (e.g. agrotin). The finished spray liquor was sprayed onto the green parts of the plant at an equivalent water application rate of 600 l/ha. Substance application was followed immediately by stress treatment of the plants. Drought stress was induced by gradual drying out under the following conditions: “Day”: 14 hours with illumination at 26-30° C. “Night”: 10 hours without illumination at 18-20° C. The duration of the respective stress phases was guided mainly by the condition of the stressed control plants. It was ended (by re-irrigating and transfer to a greenhouse with good growth conditions) as soon as irreversible damage was observed on the stressed control plants. The end of the stress phase was followed by an about 7-day recovery phase, during which the plants were once again kept under good growth conditions in a greenhouse. The exact duration of the recovery phase was variable for reasons related to the trial. At the end of the recovery phase, the fresh weights of the plant parts above ground were determined. By comparison with unstressed control plants which were kept under good growth conditions over the entire duration of the trial, percentage damage intensities were first calculated from the fresh weight values. The reduction in damage intensity resulting from treatment with test substance was then calculated by the following formula: [formula] EF: Efficacy DIs: Damage intensity of the stressed control plants DIt: Damage intensity of the stressed plants treated with test compound The values reported in table D-1 below are results from at least three repeats. BRSNS=Brassica napus TRZAS=Triticum aestivum

Row | Structure (SMILES) | ABI1 inhibition [2] | Effect (TRZAS) (Triticum aestivum [4]; spray application 250 g/ha) | also measured
1 | O=C1CCc2cc(NS(=O)(=O)Cc3ccc(F)cc3)ccc2N1CC(F)F [A1-158] | +++ (90%>inhibition≧70%) |  | Effect (TRZAS) (Triticum aestivum [1]): 10-20
2 | Cc1ccc(CS(=O)(=O)Nc2ccc3c(c2)CCC(=O)N3CC2CC2)cc1 [A19-152] | ++++ (inhibition≧90%) |  | Effect (TRZAS) (Triticum aestivum [3]; spray application 25 g/ha): 20
3 | N#Cc1ccc(CS(=O)(=O)Nc2ccc3c(c2)CCC(=O)N3CC2CC2)cc1 [A19-181] | ++++ (inhibition≧90%) |  | Effect (TRZAS) (Triticum aestivum [1]): 10-20
4 | N#Cc1cccc(CS(=O)(=O)Nc2ccc3c(c2)CCC(=O)N3CC2CC2)c1 [A19-182] | ++ (70%>inhibition≧50%) |  | Effect (TRZAS) (Triticum aestivum [3]; spray application 25 g/ha): 20; Effect (TRZAS) (Triticum aestivum [3]; spray application 250 g/ha): 20-30
5 | Cc1ccc(CS(=O)(=O)Nc2ccc3c(c2)CCC(=O)N3CC2CC2)cc1F [A19-357, N-[1-(Cyclopropylmethyl)-2-oxo-1,2,3,4-tetrahydroquinolin-6-yl]-1-(3-fluoro-4-methylphenyl)methanesulfonamide] | ++++ (inhibition≧90%) |  | Effect (TRZAS) (Triticum aestivum [1]): 10-20
6 | COCCN1C(=O)CCc2cc(NS(=O)(=O)Cc3ccc(Cl)cc3)ccc21 [A38-165] | ++++ (inhibition≧90%) | 10-30 | 
7 | Cc1ccc(CS(=O)(=O)Nc2ccc3c(c2)CCC(=O)N3CCSC(F)(F)F)cc1 [A42-152] | +++ (90%>inhibition≧70%) |  | Effect (TRZAS) (Triticum aestivum [4]; spray application 25 g/ha): 10-20
8 | O=C1CCc2cc(NS(=O)(=O)Cc3ccc(C(F)(F)F)cc3)ccc2N1CC12CC3CC(CC(C3)C1)C2 [A46-178] |  |  | Effect (TRZAS) (Triticum aestivum [4]; spray application 25 g/ha): 20-30
9 | COC(=O)CN1C(=O)CCc2cc(NS(=O)(=O)Cc3ccc(C)cc3)ccc21 [A50-152] | ++++ (inhibition≧90%) | 10-20 | 
10 | COC(=O)CN1C(=O)CCc2cc(NS(=O)(=O)Cc3cccc(Br)c3)ccc21 [A50-173] |  |  | Effect (TRZAS) (Triticum aestivum [4]; spray application 25 g/ha): 10-20
11 | COC(=O)CN1C(=O)CCc2cc(NS(=O)(=O)Cc3ccc([N+](=O)[O-])cc3)ccc21 [A50-175] | +++ (90%>inhibition≧70%) |  | Effect (TRZAS) (Triticum aestivum [4]; spray application 25 g/ha): 10-20
12 | COC(=O)CN1C(=O)CCc2cc(NS(=O)(=O)Cc3cccc(C#N)c3)ccc21 [A50-182] |  | 10-20 | 
13 | COC(=O)CCN1C(=O)CCc2cc(NS(=O)(=O)Cc3ccc(Br)cc3)ccc21 [A51-172] | ++++ (inhibition≧90%) | 10-20 | 
14 | CC1(C)CC(=O)N(CC(F)(F)F)c2ccc(NS(=O)(=O)c3ccc(C#N)cc3)cc21 [B2-45] |  |  | Effect (TRZAS) (Triticum aestivum [3]; spray application 25 g/ha): 20
15 | CC1(C)CC(=O)N(CC(F)(F)F)c2ccc(NS(=O)(=O)Cc3ccc(Cl)cc3)cc21 [B2-165] |  |  | Effect (TRZAS) (Triticum aestivum [3]; spray application 25 g/ha): 20
16 | CC1(C)CC(=O)N(CC(F)(F)F)c2ccc(NS(=O)(=O)CCc3ccc(Cl)cc3)cc21 [B2-291] |  |  | Effect (TRZAS) (Triticum aestivum [3]; spray application 25 g/ha): 20; Effect (TRZAS) (Triticum aestivum [3]; spray application 250 g/ha): 30
17 | COC(=O)CN1C(=O)CC(C)(C)c2cc(NS(=O)(=O)Cc3ccc(Cl)cc3)ccc21 [B50-165] |  | 10-20 | 
18 | COC(=O)CCN1C(=O)CC(C)(C)c2cc(NS(=O)(=O)Cc3ccc(C)cc3)ccc21 [B51-152] |  | 10-20 | EF [%] (TRZAS) (Triticum aestivum [5]): 16%
19 | COC(=O)CCN1C(=O)CC(C)(C)c2cc(NS(=O)(=O)Cc3ccc(Br)cc3)ccc21 [B51-172] |  |  | Effect (TRZAS) (Triticum aestivum [4]; spray application 25 g/ha): 10-20
20 | CCOC(=O)CCN1C(=O)CC(C)(C)c2cc(NS(=O)(=O)Cc3ccc(C#N)cc3)ccc21 [B52-181] |  | 10-20 | EF [%] (TRZAS) (Triticum aestivum [5]): 14%
21 | CCC1(C)CC(=O)N(CC2CC2)c2ccc(NS(=O)(=O)Cc3ccc(F)cc3)cc21 (stereo not drawn) [F3-158] |  |  | Effect (TRZAS) (Triticum aestivum [4]; spray application 25 g/ha): 10-20
22 | CCC1(C)CC(=O)N(CC2CC2)c2ccc(NS(=O)(=O)Cc3cccc(Cl)c3)cc21 (stereo not drawn) [F3-166] |  | 10-20 | 
23 | CCC1(C)CC(=O)N(CCOC)c2ccc(NS(=O)(=O)Cc3ccccc3)cc21 (stereo not drawn) [F7-151] |  |  | Effect (TRZAS) (Triticum aestivum [4]; spray application 25 g/ha): 10-20
24 | CCC1(C)CC(=O)N(CCOC)c2ccc(NS(=O)(=O)Cc3ccc(F)cc3)cc21 (stereo not drawn) [F7-158] |  | 10-20 | 
25 | CCC1(C)CC(=O)N(CCOC)c2ccc(NS(=O)(=O)Cc3cccc(Cl)c3)cc21 (stereo not drawn) [F7-166] |  | 10-20 | 
26 | COCCN1C(=O)CC2(CCCCC2)c2cc(NS(=O)(=O)Cc3cccc(Cl)c3)ccc21 [I5-166] |  | 10-20 | 
27 | COCCN1C(=O)CC2(CCCCC2)c2cc(NS(=O)(=O)Cc3ccc(C(F)(F)F)cc3)ccc21 [I5-178] |  | 10-30 | 
28 | O=C1CC2(CCC2)c2cc(NS(=O)(=O)Cc3ccc(Cl)cc3)ccc2N1CC1CC1 [J3-165] |  | 10-20 | 
